Assay results: patent publication US20120309087A1, “CANCER THERAPY” (University Court of The University of Dundee, priority 2006, published 2012)
Read-outs that look alike come from different tables or passages of the source.

Assays:
[1] = system: ARE-driven luciferase activity in AREc32 cells; experiment: Induction of ARE-driven luciferase activity in stable AREc32 reporter cells; type: cell-based, human; conditions: for CD, concentration of inducting agent that doubled luciferase reporter activity: DMSO set at 1; for induction of luciferase activity after BSO pre-treatment: 50 μM BSO 24 h, then 10 μM cisplatin, 20 μM melphalan, 100 μM BCNU or 100 μM chlorambucil 24 h; for effect of BSO pre-treatment on luciferase activity: 50 μM BSO 24 h before drug, data not shown; for Fold increase (luciferase activity relative to control value): concentration of each drug given in column Conc., mean ± S.D.
[2] = system: AKR1C mRNA in AREc32 cells; experiment: AKR1C mRNA in AREc32 cells (TaqMan); conditions: without pre-treatment with BSO; 24 h
[3] = system: ARE-driven luciferase activity in AREc32 cells; experiment: Antagonism of induced ARE-driven luciferase activity in AREc32 cells; type: cell-based, human; conditions: 5 mM NAC; BSO pre-treated cells; cisplatin, melphalan, chlorambucil, BCNU
[4] = AREc32, 24 h, grouping of drugs by effect on luciferase activity

Row | SMILES | CD, concentration of inducting agent that doubled luciferase reporter activity ([1]; AREc32, 24 h) | Type of modulation [1, 4] | effect on luciferase activity in AREc32 cells (in words) ([1]; 24 h, sub-lethal doses, no BSO) | other results
1 | CCOc1ccc2ccc(=O)oc2c1 [7-ethoxycoumarin] | 100 µM | – | – | –
2 | C=CC=O [Acrolein] | 2 µM | Strong inducer | – | increase in luciferase activity ([1]; 10 μM acrolein): 27 fold
3 | COc1ccc(O)c(C(C)(C)C)c1 [BHA] | 20 µM | – | – | –
4 | O=C(O)CCCc1ccc(N(CCCl)CCCl)cc1 [Chlorambucil] | – | Weak inducers | weak inducers | mRNA level of AKR1C (in words) [2]: only slightly increased
5 | N.N.[Cl][Pt][Cl] [Cisplatin] | – | Weak inducers | – | induction of luciferase activity after BSO pre-treatment [1]: 3 fold; mRNA level of AKR1C (in words) [2]: only slightly increased
6 | O=P1(N(CCCl)CCCl)NCCCO1 (stereo not drawn) [Cyclophosphamide] | – | – | – | Type of modulation [1]: Inactive; effect on luciferase activity in AREc32 cells (in words) [1]: did not have any effect
7 | COc1cccc2c1C(=O)c1c(O)c3c(c(O)c1C2=O)C[C@@](O)(C(=O)CO)C[C@@H]3O[C@H]1C[C@H](N)[C@H](O)[C@H](C)O1 [Doxorubicin] | – | Inactive | no effect | –
8 | COc1cccc2c1C(=O)c1c(O)c3c(c(O)c1C2=O)C[C@@](O)(C(=O)CO)C[C@@H]3O[C@H]1C[C@H](N)[C@@H](O)[C@H](C)O1 [Epirubicin] | – | Inactive | no effect | –
9 | CCOc1ccc2c(c1)C(C)=CC(C)(C)N2 [Ethoxyquin] | 5 µM | – | – | –
10 | COc1cc([C@@H]2c3cc4c(cc3[C@@H](O[C@@H]3O[C@@H]5CO[C@@H](C)O[C@H]5[C@H](O)[C@H]3O)[C@H]3COC(=O)[C@H]23)OCO4)cc(OC)c1O [Etopside, etoposide] | – | Weak inducers | modestly increased | effect of BSO pre-treatment on luciferase activity [1]: did not change luciferase activity significantly; Fold increase (luciferase activity relative to control value) ([1]; AREc32, 24 h): 1.3 ± 0.07
11 | OO [H2O2] | 300 µM | – | – | –
12 | OCc1c[nH]c2ccccc12 [I3C] | 20 µM | – | – | –
13 | COS(C)(=O)=O [MMS] | 100 µM | – | – | –
14 | N[C@@H](Cc1ccc(N(CCCl)CCCl)cc1)C(=O)O [Mephalan, melphalan] | – | Weak inducers | – | induction of luciferase activity after BSO pre-treatment [1]: 5 fold; effect on luciferase activity in AREc32 cells (in words) ([1]; 24 h, sub-lethal doses, no BSO, listed as melphalan): weak inducers; effect on luciferase activity in AREc32 cells (in words) ([1]; 24 h, sub-lethal doses, no BSO, listed as mephalan): modestly increased; Fold increase (luciferase activity relative to control value) ([1]; AREc32, 24 h): 1.3 ± 0.06; mRNA level of AKR1C (in words) [2]: only slightly increased
15 | CN(Cc1cnc2nc(N)nc(N)c2n1)c1ccc(C(=O)N[C@@H](CCC(=O)O)C(=O)O)cc1 [Methotrexate] | – | Inactive | no effect | –
16 | O=C1c2c(O)ccc(O)c2C(=O)c2c(NCCNCCO)ccc(NCCNCCO)c21 [Mitozantrone] | – | Weak inducers | – | effect of BSO pre-treatment on luciferase activity [1]: did not change luciferase activity significantly
17 | CC(=O)N[C@@H](CS)C(=O)O [NAC] | – | – | – | repression of anticancer drug induction of luciferase activity [3]: nearly completely repressed
18 | S=C(S)N1CCCC1 [PDTC] | 20 µM | – | – | –
19 | CC(=O)O[C@H]1C(=O)[C@@]2(C)[C@H]([C@H](OC(=O)c3ccccc3)[C@]3(O)C[C@H](OC(=O)[C@H](O)[C@@H](NC(=O)c4ccccc4)c4ccccc4)C(C)=C1C3(C)C)[C@]1(OC(C)=O)CO[C@@H]1C[C@@H]2O [Paclitaxol] | – | Inactive | no effect | –
20 | S=P(N1CC1)(N1CC1)N1CC1 [Thiotepa] | – | Inactive | no effect | –
21 | CS(=O)(=O)OCCCCOS(C)(=O)=O [busulphan] | – | – | – | induction of ARE-driven luciferase activity ([1]; previously determined non-toxic concentration, 24 hours): 3.1 fold
